Laboratory results taken from PubChem BioAssay (NCI).
Where “and” joins values, the source holds several entries; their conditions need not be identical. Equal entries are not always repeated.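 The compound was tested at five concentrations on cells cultured in 96-well plates, with a 48-hour exposure period. The concentration for 50% growth inhibition is given as GI50. Definition used: TGI = concentration required for complete inhibition of growth.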 Where a SMILES comes first, the peptide text is derived from it. [ ]: non-standard residue; d: D form. The star is where a group is joined. AllylGly = C=CC[CH](N)C(=O)O; Boc = CC(C)(C)OC(=O)*; OtBu = CC(C)(C)O*

Experiments:
Experiment in all cases: growth of human tumour cells (NCI), 48 h
[1] = test system: SK-OV-3 ovarian
[2] = test system: LOX IMVI melanoma
[3] = test system: U251 CNS
[4] = test system: BT-549 breast
[5] = test system: OVCAR-4 ovarian
[6] = test system: MDA-N
[7] = test system: MOLT-4 leukemia
[8] = test system: KM12 colon
[9] = test system: UO-31 renal
[10] = test system: OVCAR-8 ovarian

Structure (SMILES) | TGI [1] [µM] | TGI [2] [µM] | TGI [3] [µM] | TGI [4] [µM] | TGI [5] [µM] | TGI [6] [µM] | TGI [7] | TGI [8] [µM] | TGI [9] [µM] | TGI [10] | GI50 [7]
CC(C)C1(C)N=C(C(F)(F)F)c2cc(C(=O)C(F)(F)F)c3ccccc3c2N1 (centres undefined) | 30.2 | 7.01 | 11.1 | 10.7 | 18.9 | 13 | 18.1 µM | 12.7 | 14.1 | 17.6 µM | –
CCc1n[nH]c(=O)n1/N=C/c1ccccc1Cl | > 100 | > 100 | > 100 | > 100 | > 100 | > 100 | > 100 µM | > 100 | > 100 | > 100 µM | –
CC(C)(C)N(Cc1ccc2c(c1)OCO2)C(=O)/C=C\S(=O)c1ccccc1 (centres undefined) | 9.38 | 7.51 | 14.9 | 10.3 | 10.7 | 12.7 | > 45.4 µM | 14 | 7.93 | 6.44 µM | –
COCC1OC(OC2C3=C(C(C)C)CCC3(C)/C=C3\C(CCC3(O)COC)C(C)C2O)C(O)C2OC3OC12OC3(C)C1CO1 (centres undefined) | > 100 | 99.3 | 98.8 | 87.8 | > 100 | > 100 | 54 µM | > 100 | 72.1 | > 100 µM | –
CCCc1cc(=O)oc2c3c(c4c(c12)OC(C)(C)C=C4)O[C@@H](C)[C@H](C)C3=O | – | 37.3 | 97.6 | 29.6 | – | 36.4 | 26.8 µM | 27.9 | 31.4 | 45.4 µM | –
COc1ccc(C2SCC(=O)N2c2ccc(-n3c(-c4ccccc4)nc4ccccc4c3=O)cc2)cc1OC (centres undefined) | > 100 | > 100 | > 100 | > 100 | – | > 100 | > 100 µM | > 100 | > 100 | > 100 µM | –
COc1ccc(/C=C2\C[C@H]3[C@@H]4CCC5=C[C@@H](N6CCCC6)CC[C@]5(C)[C@H]4CC[C@]3(C)[C@H]2O)cc1 | 14.8 | 3.61 | 12.5 | 14.1 | 13.9 | 3.73 | > 45.4 µM | 8.02 | 3.26 | 16.4 µM | –
COC(=O)C1(Cc2ccc3c(c2)CCC3)Cc2ccc3c(c2C1O)CCC3 (centres undefined) | 51.8 | 26.2 | 30.6 | 29.5 | 27.7 | 29.8 | > 100 µM | 38.9 | 22.5 | 39.1 µM | –
CC1CC[C@@]2(OC1)OC1C[C@H]3[C@@H]4C/C(=N\N(C)C)[C@@]5(O)CC(O)CC[C@]5(C)[C@H]4CC[C@]3(C)C1[C@@H]2C (some centres undefined) | > 100 | > 100 | > 100 | > 100 | > 100 | 52.6 | > 100 µM | > 100 | > 100 | – | –
N#Cc1c(-c2ccc([N+](=O)[O-])cc2)cc(-c2ccc(Nc3ccnc4cc(C(F)(F)F)ccc34)cc2)nc1N | > 71.6 | > 63.3 | 21.9 | > 75.6 | 28.1 | 38.3 | 14.5 µM | > 47.9 | 36.5 | > 60.2 µM | –
O=C1NC(Cc2c[nH]c3ccccc23)C(=O)N2C(C3CCCCC3)c3[nH]c4ccccc4c3C[C@@H]12 (some centres undefined) | – | 28.1 | 26 | 40.8 | > 100 | 25.2 | 34.6 µM | 31.4 | 33.2 | 56.7 µM | –
COC(=O)C(O)P(=O)(OC)OC (centres undefined) | > 100 | > 100 | > 100 | > 100 | > 100 | > 100 | > 100 µM | > 100 | > 100 | > 100 µM | –
Cc1ccc(-c2c(C#N)c(S)n(NS(=O)(=O)c3ccc(C)cc3)c(=O)c2C#N)cc1 | > 100 | > 100 | 37.7 | 47.8 | 36.4 | > 100 | > 100 µM | 35.2 | 38.5 | 41.8 µM | –
COc1ccc(N=C(C)c2ccncc2)cc1 | > 100 | > 100 | > 100 | > 100 | > 100 | > 100 | > 100 µM | > 100 | > 100 | > 100 µM | –
Cc1ccc(S(=O)(=O)NN=C2CCCCCCCCCCC2)cc1 | > 100 | > 100 | > 100 | > 100 | > 100 | > 100 | > 100 µM | > 100 | > 100 | > 100 µM | –
CCOc1ccc(/C(O)=C/c2nc3ccccc3nc2/C=C(\O)c2ccc(OCC)cc2)cc1 | > 100 | > 100 | > 100 | > 100 | > 100 | > 100 | > 100 µM | – | > 100 | – | –
COc1cc(CCCOC(=O)/C=C/c2ccc(O)c(O)c2)cc(O)c1O | > 100 | 45.6 | > 100 | > 100 | > 100 | 53.7 | > 100 µM | > 100 | > 100 | > 100 µM | –
O=c1cc(N2CCOCC2)[nH]c(=O)n1-c1cccc(C(F)(F)F)c1 | > 100 | > 100 | > 100 | > 100 | > 100 | > 100 | > 100 µM | > 100 | > 100 | > 100 µM | –
CCCc1c(OC)c(=O)c2c(OC)cc(OC)c3c4c(OC)cc(OC)c5c(=O)c(OC)c(CCC)c(c1c23)c54 | 30.4 | 23.1 | 29.6 | 31.4 | 28.4 | 32.9 | 35 µM | 34.1 | 28.9 | 40.8 µM | –
CN(C)c1ccc(/C=C(\C#N)C(N)=C(C#N)C#N)cc1 | > 100 | > 100 | > 100 | > 100 | > 100 | > 100 | – | > 100 | > 100 | > 100 µM | –
CC1(C2(C)OC(=O)c3ccccc32)OC(=O)c2ccccc21 (centres undefined) | > 100 | > 100 | > 100 | > 100 | > 100 | > 100 | > 100 µM | > 100 | > 100 | > 100 µM | –

Structure (SMILES) | TGI [1] [µM] | TGI [2] [µM] | TGI [3] [µM] | TGI [4] [µM] | TGI [5] [µM] | TGI [6] [µM] | TGI [7] | TGI [8] [µM] | TGI [9] [µM] | TGI [10] | GI50 [7]
C=CCC(NC(=O)C(CC(=O)OC(C)(C)C)NC(=O)OC(C)(C)C)C(=O)OC (centres undefined) (Boc-Asp(OtBu)-[AllylGly]-OMe; configuration not given here) | > 100 | 41.7 | > 63 | > 100 | > 100 | > 79.7 | > 91.6 µM | > 100 | > 100 | 26.6 µM | –
OC12COc3ccccc3C1Oc1ccccc1C2 (centres undefined) | > 100 | > 100 | > 100 | > 100 | > 100 | > 100 | > 100 µM | > 100 | > 100 | > 100 µM | –
O=c1[nH]c(=O)n(C2CC(O)C(CO)O2)cc1OCCCc1ccccc1 (centres undefined) | > 100 | > 100 | > 100 | > 100 | > 100 | > 100 | > 100 µM | > 100 | > 100 | > 100 µM | –
CC1=C2c3c(C)ccc4ccc(C)c(c34)C2(O)C(C)C1=O (centres undefined) | > 100 | > 100 | > 100 | 57.4 | > 100 | > 100 | > 100 µM | > 100 | > 100 | 49.4 µM | –
CC(=O)C(=[N+]=[N-])C(=O)OC(C)(C)C#N | > 10 | > 10 | > 10 | > 10 | > 10 | > 10 | > 10 µM | > 10 | > 10 | > 10 µM | –
CN(NC(=O)CCCl)C1=NCCN1 | > 100 | > 100 | > 100 | > 100 | > 100 | > 100 | > 100 µM | > 100 | > 100 | > 100 µM | –
CCCCCCOc1ccc(C(=O)NOCc2ccccc2)cc1 | > 100 | > 100 | > 100 | > 100 | > 100 | > 100 | > 100 µM | > 100 | > 100 | > 100 µM | –
Cc1cccc2c1Oc1ccccc1C2NC(=O)c1ccc([N+](=O)[O-])cc1 (centres undefined) | – | > 100 | > 100 | > 100 | > 100 | > 100 | > 100 µM | > 100 | > 100 | > 100 µM | –
Cc1cccc2c1Oc1cc(Cl)ccc1C2NC(=O)CCN1CCN(CCO)CC1 (centres undefined) | > 100 | 9.7 | 29.3 | 37.5 | 31 | 14.6 | 38.9 µM | 11.5 | 26.8 | 26.3 µM | –
O=C(O)C1CCCN1Cc1cc2ccccc2c2ccccc12 (centres undefined) | > 100 | > 100 | > 100 | > 100 | > 100 | > 100 | > 100 µM | > 100 | > 100 | > 100 µM | –
O=C(NNC(=S)Nc1ccccc1)c1ccccc1Nc1ccccc1C(=O)NNC(=S)Nc1ccccc1 | 89.8 | 26 | 50.7 | 57.7 | > 100 | > 100 | > 100 µM | > 100 | 44.6 | 52.2 µM | –
Cc1c(CCOC=O)c(=O)[nH]c2nncn12 | > 100 | > 100 | > 100 | > 100 | > 100 | > 100 | > 100 µM | > 100 | > 100 | > 100 µM | –
CCCCC(=O)Nc1ccc2cc(C(=O)OC)c(ON3C(=O)c4ccccc4C3=O)nc2n1 | > 100 | > 100 | > 100 | > 100 | 81.2 | 80.7 | > 100 µM | > 100 | 44.4 | 58.4 µM | –
O=C(CC(=O)N1N=C(N2CCCCC2)CC1c1ccccc1)Nc1ccc(Cl)cc1 (centres undefined) | – | > 100 | > 100 | > 100 | > 100 | > 100 | > 100 µM | > 100 | > 100 | > 100 µM | –
O=C1C(CN2CCCCC2)CCCC1CN1CCCCC1 (centres undefined) | > 100 | > 57.2 | > 100 | 30.9 | 22.2 | 29.7 | > 65.6 µM and 12 µM | > 100 | > 68.4 | 21 µM and 39.3 µM | 10.9 µM and 4.27 µM
CSc1nc(-c2cc3c(c(SC)n2)CCCCC3)cc2c1CCCCC2 | > 100 | > 100 | > 100 | > 100 | > 100 | > 100 | > 100 µM | > 100 | > 100 | > 100 µM | –
Clc1ccc(Oc2ccc(N=Cc3ccc(Cl)cc3Cl)cc2Cl)cc1 | > 100 | > 100 | 89.3 | 93.1 | > 100 | 33.7 | > 100 µM | > 100 | > 100 | > 100 µM | –
Cc1cn(C2CCC(/C=N\O)O2)c(=O)[nH]c1=O (centres undefined) | – | > 100 | > 100 | > 100 | > 100 | > 100 | > 100 µM | > 100 | > 100 | > 100 µM | –
CC(C)NC(=O)CN1CCN(C2=CC(=O)c3c(O)ccc(O)c3C2=O)CC1 | 77.1 | 19.6 | 35.9 | 32.1 | 20.3 | 16.3 | > 100 µM | 33.2 | 33.2 | > 54 µM | –
CC1OC(OC2C(O[C@H]3CC[C@@]4(C)[C@@H](CC[C@@H]5[C@@H]4CC[C@]4(C)[C@@H]6[C@H](C[C@@H]54)O[C@]4(CC[C@@H](C)CO4)[C@H]6C)C3)OC(CO)C(OC3OC(CO)C(O)C(OC4OCC(O)C(O)C4O)C3OC3OCC(O)C(O)C3O)C2O)C(O)C(O)C1O (some centres undefined) | 3.44 | 2.91 | 1.79 | 2.36 | 2.89 | 36.3 | – | 1.92 | 2.44 | 3.25 µM | –
